Tests used:
Test in all cases: Cysteine reactivity ABPP
Type in all cases: binding
[1] = biological target: T1, ACAT1 Acetyl-CoA acetyltransferase, mitochondrial C119 (P24752) (Homo sapiens, UniProt P24752)
T1 construct: endogenous in cells; host or cells: primary human T cells
T1 sequence (P24752 34-427): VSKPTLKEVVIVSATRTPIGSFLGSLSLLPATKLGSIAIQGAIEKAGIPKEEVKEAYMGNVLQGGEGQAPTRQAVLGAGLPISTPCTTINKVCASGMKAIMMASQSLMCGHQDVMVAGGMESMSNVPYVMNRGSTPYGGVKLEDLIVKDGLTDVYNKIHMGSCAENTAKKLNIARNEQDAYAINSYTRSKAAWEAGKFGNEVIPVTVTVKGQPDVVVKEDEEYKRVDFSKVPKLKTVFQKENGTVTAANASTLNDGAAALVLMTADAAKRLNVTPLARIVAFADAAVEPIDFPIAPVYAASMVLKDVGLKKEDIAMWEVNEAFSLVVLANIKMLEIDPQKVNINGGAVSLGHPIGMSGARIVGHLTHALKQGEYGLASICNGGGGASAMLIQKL
Experimental: (§1) Activated or expanded primary human T cells were re-suspended in RPMI (1×10^6 cells/mL) containing 10% fetal bovine serum (FBS), penicillin (100 U/mL), streptomycin ([…]), and L-glutamine (2 mM). The cells were treated with DMSO or compounds for 3 h, pelleted (524 g, 5 min), washed with PBS, and lysed by sonication (2×8 pulses). Soluble and particulate proteomic fractions were separated by ultracentrifugation (100,000 g, 45 min), and protein concentration was normalized to 1.7 mg/mL using a standard DC protein assay (Bio-Rad). The resulting proteomes were analyzed by competitive isotopic Tandem Orthogonal Proteolysis Activity-Based Protein Profiling (isoTOP-ABPP).
(§2) The heavy/light isoTOP-ABPP ratios (R values) for each unique peptide (DMSO/compound treated) were quantified with in-house CIMAGE software (Weerapana et al., 2010) using default parameters (3 MS1 acquisitions per peak and signal to noise threshold set to 2.5). Site-specific engagement of cysteine residues was assessed by blockade of IA-alkyne probe labeling. […] Ratios for unique peptide sequences were calculated for each experiment; overlapping peptides with the same modified cysteine (e.g., different charge states, elution times or tryptic termini) were grouped together and the median ratio was reported as the final ratio (R). Additionally, ratios for peptide sequences containing multiple cysteines were grouped together. When aggregating data across experimental replicates, the mean of each experimental median R was reported. The peptide ratios reported by CIMAGE were further filtered to ensure the removal or correction of low-quality ratios in each individual dataset. The quality filters applied were the following: removal of half-tryptic peptides, removal of peptides with more than one tryptic miscleaved, removal of peptides with R=20 and only a single MS2 event triggered during the elution of the parent ion, removal of non-unique peptides. Further filtering was then performed as described below for each experiment type.
(§3) Samples (500 μL, 1.7 mg/mL) were treated with iodoacetamide desthiobiotin (IA-DTB, 5 μL of 10 mM stock in DMSO, final concentration: 100 μM) for 1 h at ambient temperature. Ice-cold MeOH (500 μL) and CHCl3 (200 μL) were then added, the mixture was vortexed and centrifuged (10,000 g, 10 min, 4° C.) to afford a protein disc at the interface of CHCl3 and aqueous layers. Both layers were aspirated without perturbing the disk, which was re-suspended in cold methanol (500 μL) and CHCl3 (200 μL) by sonication. The proteins were pelleted (10,000 g, 10 min, 4° C.), and the resulting pellets were re-suspended in a buffer (90 μL) containing 9M urea, 10 mM DTT and 50 mM triethylammonium bicarbonate ( 1/20 dilution of 1.0 M stock solution, pH 8.5) by thorough pipetting up and down. The resulting mixture was heated at 65° C. for 20 min. Sample was cooled to room temp, iodoacetamide (10 μL, 500 mM solution in H2O) was added, and the samples were incubated at 37° C. for 30 min with shaking.
(§4) At individual TMT experiment level, the following filters were applied to remove low-quality peptides: removal of non-unique peptides; removal of half-tryptic peptides; removal of peptides with more than one internal miscleaved site; removal of peptides with low (<10,000) sum of reporter ion intensities for control channels, and peptides with high variation between the replicate control channels (coefficient of variance >0.5). R values (compound-treated vs. DMSO-treated) for each peptide entry were calculated using the reporter ion intensities of DMSO and compound treated TMT channels for each treatment group with a maximum ratio cap of 20. […]

[2] = biological target: T2, ATP2A2 Sarcoplasmic/endoplasmic reticulum calcium ATPase 2 C997 (P16615) (Homo sapiens, UniProt P16615)
T2 construct: endogenous in cells; host or cells: primary human T cells
T2 sequence (P16615 whole entry, one chain of several): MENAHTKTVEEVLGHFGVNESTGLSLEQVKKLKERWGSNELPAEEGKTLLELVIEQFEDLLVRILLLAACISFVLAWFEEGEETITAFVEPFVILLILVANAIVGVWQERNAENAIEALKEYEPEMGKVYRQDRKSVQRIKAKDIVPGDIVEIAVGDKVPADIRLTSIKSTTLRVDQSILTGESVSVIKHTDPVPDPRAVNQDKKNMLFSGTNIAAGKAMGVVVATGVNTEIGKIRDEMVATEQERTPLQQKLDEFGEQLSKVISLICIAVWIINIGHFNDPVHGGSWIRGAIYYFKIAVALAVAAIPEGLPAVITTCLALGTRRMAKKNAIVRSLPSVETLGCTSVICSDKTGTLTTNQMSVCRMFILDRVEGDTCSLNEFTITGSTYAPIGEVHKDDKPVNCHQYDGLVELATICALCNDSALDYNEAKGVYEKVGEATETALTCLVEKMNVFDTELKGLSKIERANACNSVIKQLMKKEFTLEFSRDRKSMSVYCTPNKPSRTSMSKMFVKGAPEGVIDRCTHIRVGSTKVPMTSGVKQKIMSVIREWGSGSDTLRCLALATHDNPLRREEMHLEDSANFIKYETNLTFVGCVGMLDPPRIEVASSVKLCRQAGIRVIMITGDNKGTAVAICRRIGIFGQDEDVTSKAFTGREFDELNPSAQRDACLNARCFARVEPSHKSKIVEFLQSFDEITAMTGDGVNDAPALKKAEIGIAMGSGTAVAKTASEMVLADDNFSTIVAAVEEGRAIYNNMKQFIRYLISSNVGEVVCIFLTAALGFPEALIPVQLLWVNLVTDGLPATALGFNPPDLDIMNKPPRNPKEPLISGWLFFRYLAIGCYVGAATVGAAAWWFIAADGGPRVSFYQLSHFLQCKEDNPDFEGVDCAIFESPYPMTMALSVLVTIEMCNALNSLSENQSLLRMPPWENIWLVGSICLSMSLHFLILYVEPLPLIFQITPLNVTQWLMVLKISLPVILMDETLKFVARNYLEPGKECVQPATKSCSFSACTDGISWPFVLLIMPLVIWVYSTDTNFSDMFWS
Experimental: as §1, §2, §3, §4

[3] = biological target: T3, PDIA3 Protein disulfide-isomerase A3 C57, C60 (P30101) (Homo sapiens, UniProt P30101)
T3 construct: endogenous in cells; host or cells: primary human T cells
T3 sequence (P30101 25-505): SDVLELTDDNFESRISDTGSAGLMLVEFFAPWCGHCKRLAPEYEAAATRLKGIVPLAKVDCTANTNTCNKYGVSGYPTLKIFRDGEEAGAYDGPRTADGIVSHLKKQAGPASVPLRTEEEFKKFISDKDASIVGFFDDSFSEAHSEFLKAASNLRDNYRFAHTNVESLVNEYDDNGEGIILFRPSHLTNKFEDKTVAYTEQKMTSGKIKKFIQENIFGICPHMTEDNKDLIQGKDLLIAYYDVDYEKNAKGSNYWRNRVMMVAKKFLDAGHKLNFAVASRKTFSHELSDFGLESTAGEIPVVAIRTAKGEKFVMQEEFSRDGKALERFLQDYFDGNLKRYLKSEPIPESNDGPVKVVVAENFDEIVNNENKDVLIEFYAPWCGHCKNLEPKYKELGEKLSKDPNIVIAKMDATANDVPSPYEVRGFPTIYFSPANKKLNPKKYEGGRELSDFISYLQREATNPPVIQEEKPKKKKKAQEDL
Experimental: as §1, §2, §3, §4

[4] = biological target: T4, PELP1 Proline-, glutamic acid- and leucine-rich protein 1 C71 (Q8IZL8) (Homo sapiens, UniProt Q8IZL8)
T4 construct: endogenous in cells; host or cells: primary human T cells
T4 sequence (Q8IZL8 whole entry, one chain of several): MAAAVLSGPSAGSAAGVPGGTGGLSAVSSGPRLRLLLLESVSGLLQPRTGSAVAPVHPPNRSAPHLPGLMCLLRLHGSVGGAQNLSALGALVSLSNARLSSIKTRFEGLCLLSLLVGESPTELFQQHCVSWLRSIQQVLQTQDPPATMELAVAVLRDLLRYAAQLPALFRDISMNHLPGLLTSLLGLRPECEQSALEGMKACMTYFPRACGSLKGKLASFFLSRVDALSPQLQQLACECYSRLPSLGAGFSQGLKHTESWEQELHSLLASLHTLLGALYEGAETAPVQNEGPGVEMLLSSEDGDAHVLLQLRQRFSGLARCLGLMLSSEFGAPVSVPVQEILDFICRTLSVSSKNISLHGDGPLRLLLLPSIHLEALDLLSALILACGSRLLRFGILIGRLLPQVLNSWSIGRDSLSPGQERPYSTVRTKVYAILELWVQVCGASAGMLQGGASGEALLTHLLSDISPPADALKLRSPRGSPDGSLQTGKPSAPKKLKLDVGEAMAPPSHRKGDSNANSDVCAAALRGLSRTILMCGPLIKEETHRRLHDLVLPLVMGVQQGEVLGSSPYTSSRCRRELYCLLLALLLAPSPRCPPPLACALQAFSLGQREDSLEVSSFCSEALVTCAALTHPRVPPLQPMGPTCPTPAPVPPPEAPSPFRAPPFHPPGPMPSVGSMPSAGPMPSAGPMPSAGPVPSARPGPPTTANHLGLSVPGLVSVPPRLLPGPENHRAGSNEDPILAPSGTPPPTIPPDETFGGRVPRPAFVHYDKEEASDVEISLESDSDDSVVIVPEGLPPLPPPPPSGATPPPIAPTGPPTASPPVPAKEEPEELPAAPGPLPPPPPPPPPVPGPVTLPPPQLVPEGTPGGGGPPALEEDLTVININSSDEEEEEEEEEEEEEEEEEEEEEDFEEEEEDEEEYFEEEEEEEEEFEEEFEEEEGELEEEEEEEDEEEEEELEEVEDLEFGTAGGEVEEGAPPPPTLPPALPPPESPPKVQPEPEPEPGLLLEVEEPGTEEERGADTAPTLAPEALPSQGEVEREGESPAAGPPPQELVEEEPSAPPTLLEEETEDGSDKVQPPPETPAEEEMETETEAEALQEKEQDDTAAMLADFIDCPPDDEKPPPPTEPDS
Experimental: as §1, §2, §3, §4

[5] = biological target: T5, PFKFB3 6-phosphofructo-2-kinase/fructose-2,6-bisphosphatase 3 C155 (Q16875) (Homo sapiens, UniProt Q16875)
T5 construct: endogenous in cells; host or cells: primary human T cells
T5 sequence (Q16875 whole entry, one chain of several): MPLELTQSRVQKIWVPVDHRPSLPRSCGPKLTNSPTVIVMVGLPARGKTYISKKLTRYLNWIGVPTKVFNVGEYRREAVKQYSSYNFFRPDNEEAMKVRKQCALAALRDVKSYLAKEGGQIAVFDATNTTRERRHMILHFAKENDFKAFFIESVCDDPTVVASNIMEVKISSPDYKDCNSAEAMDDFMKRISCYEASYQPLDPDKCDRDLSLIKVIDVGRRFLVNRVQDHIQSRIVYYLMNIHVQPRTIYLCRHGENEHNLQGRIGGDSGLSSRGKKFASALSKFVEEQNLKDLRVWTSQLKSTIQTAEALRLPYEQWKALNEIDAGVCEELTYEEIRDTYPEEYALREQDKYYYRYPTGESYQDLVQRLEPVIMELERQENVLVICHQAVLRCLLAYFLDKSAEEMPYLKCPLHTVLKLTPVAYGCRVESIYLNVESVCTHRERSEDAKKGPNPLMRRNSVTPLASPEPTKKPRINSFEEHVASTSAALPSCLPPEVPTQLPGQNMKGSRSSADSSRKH
Experimental: as §1, §2, §3, §4

[6] = biological target: T6, TRANK1 TPR and ankyrin repeat-containing protein 1 C1319 (O15050) (Homo sapiens, UniProt O15050)
T6 construct: Soluble and particulate proteomic fractions were separated by ultracentrifugation; endogenous in cells; host or cells: primary human T cells
Experimental: as §1, §2, §3, §4

[7] = biological target: T7, TYK2 Non-receptor tyrosine-protein kinase TYK2 C838 (P29597) (Homo sapiens, UniProt P29597)
T7 construct: endogenous in cells; host or cells: primary human T cells
T7 sequence (P29597 whole entry): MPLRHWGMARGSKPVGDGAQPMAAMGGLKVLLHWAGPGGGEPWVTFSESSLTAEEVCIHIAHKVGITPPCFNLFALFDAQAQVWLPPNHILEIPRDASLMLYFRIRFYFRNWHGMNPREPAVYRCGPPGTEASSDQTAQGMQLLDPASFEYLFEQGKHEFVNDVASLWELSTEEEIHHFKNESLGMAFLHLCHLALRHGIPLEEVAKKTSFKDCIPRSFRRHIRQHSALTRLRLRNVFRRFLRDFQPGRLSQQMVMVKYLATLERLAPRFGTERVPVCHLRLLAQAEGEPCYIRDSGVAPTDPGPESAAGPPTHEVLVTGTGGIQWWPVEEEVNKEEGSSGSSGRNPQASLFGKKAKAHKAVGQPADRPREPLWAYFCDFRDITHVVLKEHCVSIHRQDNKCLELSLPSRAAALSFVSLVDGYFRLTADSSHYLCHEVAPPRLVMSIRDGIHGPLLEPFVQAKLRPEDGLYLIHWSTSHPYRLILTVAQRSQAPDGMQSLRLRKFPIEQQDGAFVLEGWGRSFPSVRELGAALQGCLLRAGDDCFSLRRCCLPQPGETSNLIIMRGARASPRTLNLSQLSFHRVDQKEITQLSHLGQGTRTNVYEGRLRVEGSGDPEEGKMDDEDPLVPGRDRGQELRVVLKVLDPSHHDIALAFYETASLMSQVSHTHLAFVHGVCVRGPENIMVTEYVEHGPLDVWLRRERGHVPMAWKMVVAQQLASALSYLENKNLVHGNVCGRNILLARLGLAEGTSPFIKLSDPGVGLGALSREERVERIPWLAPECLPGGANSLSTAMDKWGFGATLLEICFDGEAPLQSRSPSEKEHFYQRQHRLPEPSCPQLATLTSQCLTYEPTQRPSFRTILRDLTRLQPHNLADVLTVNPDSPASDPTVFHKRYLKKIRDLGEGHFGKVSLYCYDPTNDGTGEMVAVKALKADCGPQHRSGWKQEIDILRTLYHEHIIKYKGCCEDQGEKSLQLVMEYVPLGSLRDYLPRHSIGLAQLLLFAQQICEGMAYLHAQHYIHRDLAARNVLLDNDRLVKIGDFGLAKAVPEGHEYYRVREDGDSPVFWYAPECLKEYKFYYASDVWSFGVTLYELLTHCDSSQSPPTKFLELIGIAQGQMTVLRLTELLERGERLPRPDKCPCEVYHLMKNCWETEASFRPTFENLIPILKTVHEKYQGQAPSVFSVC
Experimental: as §1, §2, §3, §4

Cysteine reactivity proteomic data ([1]; 100 μM)	Cysteine reactivity proteomic data ([1]; 500 μM)	Cysteine reactivity proteomic data [2]; 100	Cysteine reactivity proteomic data [3]; 100	Cysteine reactivity proteomic data [4]; 100	Cysteine reactivity proteomic data ([5]; 100 μM)	Cysteine reactivity proteomic data ([5]; 500 μM)	Cysteine reactivity proteomic data [6]; 100	Cysteine reactivity proteomic data ([7]; 100 μM)	Cysteine reactivity proteomic data ([7]; 500 μM)	Cysteine reactivity proteomic data ([2]; 500 μM)	Cysteine reactivity proteomic data ([3]; 500 μM)	Cysteine reactivity proteomic data ([4]; 500 μM)	Cysteine reactivity proteomic data ([6]; 500 μM)	Compound
−38.85	24.795	22.19	61.24	71.33	26.69	90.3507	82.88	78.9759	98.8468					O=C(CCl)N1CCN(S(=O)(=O)c2ccc(-c3ccncc3)cc2)CC1 [Compound B9]
	−0.3282					−24.3435			22.4158	61.48	7.07	1.71	6.5	C=CC(=O)N(Cc1cccc(Cl)c1Cl)c1ccc(Oc2ccccc2)c(C(F)(F)F)c1 [Compound K4]

Reference: patent publication US20240123078A1, “COMPOUNDS AND METHODS FOR MODULATING IMMUNE-RELATED PROTEINS” (Vividion Therapeutics, Inc., priority 2019, published 2024)
